Patent publication US6331548A, “1-cycloalkyl-1,8-naphthyridin-4-one derivative as type IV phosphodiesterase inhibitor” (Suntory Limited, priority 1998, dated 2001)
pIC50: −log10 of the molar value. Structures can show the parent of a compound that is named as a salt.

Biological target: type IV phosphodiesterase
Assay: Type IV phosphodiesterase inhibiting activity
Type: biochemical, human
Details: U937 type IV phosphodiesterase fraction, 0.28 μM cAMP, pH 7.5, 30° C., 30 minutes; read-out: PDEIV-IC50
Protocol: The following assay was used to evaluate the ability of the compound of the present invention to suppress type IV phosphodiesterase, according to Biochemical. Pharmacol. 48 (6), 1219-1223 (1994).
1) Type IV phosphodiesterase activity fractions were prepared as follows. Namely, human histiocytic lymphoma cell line U937 was cultured in an RPMI1640 medium containing 10% fetal calf serum to obtain 10^9 cells of U937. The cells were recovered by centrifugation and suspended in 40 ml of buffer A (20 mM bis-tris, 5 mM 2-mercaptoethanol, 2 mM benzamidine, 2 mM EDTA, 0.1 mM 4-(2-aminoethyl)benzensulfonyl hydrochloride, 50 mM sodium acetate, pH=6.5). The cells were broken by a sonication and centrifuged (4° C., 10,000 G, 10 minutes) to obtain a supernatant. This was filtered by a 0.45 μm filter to obtain the soluble fraction.
2) The soluble fraction obtained was applied into a 1×10 cm DEAE Sepharose column equalibrated with the buffer A. 120 ml of the buffer A containing a linear gradient solution of 0.05 to 1M sodium acetate was used to separate the phosphodiesterase and recover 24 5-ml fractions. Each of the fractions was measured for the cAMP phosphodiesterase activity.
3) The test compound was reacted at a desired concentration in a reaction mixture containing 20 mM tris-HCl (pH 7.5), 1 mM MgCl2, 100 μM EDTA, 330 μg/ml calf serum albumin, 10 μg/ml 5'-nucleotidase, 0.4 μCi ^3 H-cAMP (0.28 μM cAMP) and the type IV phosphodiesterase stored solution at 30° C. for 30 minutes. QAE-Sephadex suspended in 10 mM of hepes-Na (pH -7.0) was added to the reaction mixture which was then allowed to stand for 5 minutes, then the supernatant was obtained, QAE-Sephadex was further added, to the supernatant, and was allowed to stand for 5 minutes, then the supernatant was obtained and measured for radioactivity.

Row | SMILES | pIC50
1 | CC1(O)CCC(n2cc(C(=O)Nc3ccncc3)c(=O)c3cccnc32)CC1 (stereo not shown) [Example 194, N-(4-pyridinyl)-1-(4-hydroxy-4-methylcyclohexyl)-1,4-dihydro[1,8]naphthylidin-4-one-3-carboxamide] | 6.02
2 | CCOC(=O)N1CCC(n2cc(C(=O)Nc3c(Cl)cncc3Cl)c(=O)c3cccnc32)CC1 [Example 62, N-(3,5-dichloropyridin-4-yl)-1-(1-ethoxycarbonylpiperidin-4-yl)-1,4-dihydro[1,8]naphthylidin-4-one-3-carboxamide] | 8.64
3 | Cc1cc(NC(=O)c2cn([C@H]3CC[C@H](O)CC3)c3ncccc3c2=O)sn1 [Example 176, N-(3-methylisothiazol-5-yl)-1-(trans-4-hydroxycyclohexyl)-1,4-dihydro[1,8]naphthylidin-4-one-3-carboxamide] | 6.04
4 | O=C(Nc1ccncc1)c1cn([C@@H]2CCOC2)c2ncccc2c1=O [Example 38, N-(4-pyridyl)-1-[(R)-tetrahydro-3-furanyl]-1,4-dihydro[1,8]naphthylidin-4-one-3-carboxamide] | 6.48
5 | O=C(Nc1cccnc1)c1cn(C2CC2)c2ncccc2c1=O [Example 156, N-(3-pyridyl)-1-cyclopropyl-1,4-dihydro[1,8]naphthylidin-4-one-3-carboxamide] | 6.82
6 | O=C(NC1CCCC1)c1cn([C@H]2CC[C@H](O)CC2)c2ncccc2c1=O [Example 168, N-cyclopentyl-1-(trans-4-hydroxycyclohexyl)-1,4-dihydro[1,8]naphthylidin-4-one-3-carboxamide] | 5.82
7 | COC(=O)N1CCC(n2cc(C(=O)Nc3c(Cl)cccc3Cl)c(=O)c3cccnc32)C1 (racemic) [Example 4, (±)-N-(2,6-dichlorophenyl)-1-(1-methoxycarbonylpyrrolidin-3-yl)-1,4-dihydro[1,8]naphthyridin-4-one-3-carboxamide] | 7.22
8 | O=C(O[C@H]1CC[C@H](n2cc(C(=O)Nc3c(Cl)cncc3Cl)c(=O)c3cccnc32)CC1)c1ccc(CN2CCOCC2)cc1 [Example 135, trans-4-[3-{[(3,5-dichloro-4-pyridinyl)amino]carbonyl}-4-oxo[1,8]naphthylidin-1(4H)-yl]cyclohexyl 4-(morpholinomethyl)benzoate hydrochloride] | 8.35
9 | CCC(=O)O[C@H]1CC[C@H](n2cc(C(=O)Nc3c(Cl)cncc3Cl)c(=O)c3cccnc32)CC1 [Example 129, trans-4-[3-{[(3,5-dichloro-4-pyridinyl)amino]carbonyl}-4-oxo[1,8]naphthylidin-1(4H)-yl]cyclohexylpropionate] | 8.03
10 | CC(=O)N[C@H]1CC[C@H](n2cc(C(=O)Nc3c(Cl)cncc3Cl)c(=O)c3cccnc32)CC1 [Example 70, N-(3,5-dichloropyridin-4-yl)-1-[trans-4-(acetylamino)cyclohexyl]-1,4-dihydro[1,8]naphthylidin-4-one-3-carboxamide] | 8.41
11 | Cc1cc(NC(=O)c2cn([C@H]3CC[C@H](O)CC3)c3ncccc3c2=O)on1 [Example 178, N-(3-methylisoxazol-5-yl)-1-(trans-4-hydroxycyclohexyl)-1,4-dihydro[1,8]naphthylidin-4-one-3-carboxamide] | 5.48
12 | CN1CCN(Cc2ccc(C(=O)O[C@H]3CC[C@H](n4cc(C(=O)Nc5c(Cl)cncc5Cl)c(=O)c5cccnc54)CC3)cc2)CC1 [Example 133, trans-4-[3-{[(3,5-dichloro-4-pyridinyl)amino]carbonyl}-4-oxo[1,8]naphthylidin-1(4H)-yl]cyclohexyl 4-[(4-methylpiperazino)methyl]benzoate dihydrochloride] | 8.14
13 | CC1(O)CCC(n2cc(C(=O)Nc3c(Cl)cncc3Cl)c(=O)c3cccnc32)CC1 (stereo not shown) [Example 192, N-(3,5-dichloropyridin-4-yl)-1-(4-hydroxy-4-methylcyclohexyl)-1,4-dihydro[1,8]naphthylidin-4-one-3-carboxamide] | 8.39
14 | CCNC(=O)N[C@H]1CC[C@H](n2cc(C(=O)Nc3c(Cl)cncc3Cl)c(=O)c3cccnc32)CC1 [Example 71, N-(3,5-dichloropyridin-4-yl)-1-[trans-4-(ethylaminocarbonylamino)cyclohexyl]-1,4-dihydro[1,8]naphthylidin-4-one-3-carboxamide] | 9.30
15 | O=C(O[C@H]1CC[C@H](n2cc(C(=O)Nc3c(Cl)cncc3Cl)c(=O)c3cccnc32)CC1)c1ccccc1 [Example 130, trans-4-[3-{[(3,5-dichloro-4-pyridinyl)amino]carbonyl}-4-oxo[1,8]naphthylidin-1(4H)-yl]cyclohexylbenzoate] | 7.30
16 | CC(=O)O[C@H]1CC[C@H](n2cc(C(=O)Nc3c(Cl)cncc3Cl)c(=O)c3cccnc32)CC1 [Example 197, trans-4-[3-{[(3,5-dichloropyridin-4-yl)amino]carbonyl}-1,4-dihydro[1,8]naphthylidin-1-yl]cyclohexyl acetate] | 8.21
17 | O=C(Nc1c(Cl)cncc1Cl)c1cn([C@@H]2CC[C@@H](O)C2)c2ncccc2c1=O [Example 79, N-(3,5-dichloropyridin-4-yl)-1-[(1R,3R)-3-(hydroxy)cyclopentyl]-1,4-dihydro[1,8]naphthylidin-4-one-3-carboxamide] | 8.92
18 | Cc1nn(C)c(C)c1NC(=O)c1cn([C@H]2CC[C@H](O)CC2)c2ncccc2c1=O [Example 184, N-(1,3,5-trimethylpyrazol-4-yl)-1-(trans-4-hydroxycyclohexyl)-1,4-dihydro[1,8]naphthylidin-4-one-3-carboxamide] | 5.64
19 | CC(=O)O[C@H]1CC[C@@H](n2cc(C(=O)Nc3c(Cl)cncc3Cl)c(=O)c3cccnc32)CC1 [Example 118] | 8.89
20 | N[C@H]1CC[C@H](n2cc(C(=O)Nc3c(Cl)cncc3Cl)c(=O)c3cccnc32)CC1 [Example 69, N-(3,5-dichloropyridin-4-yl)-1-(trans-4-aminocyclohexyl)-1,4-dihydro[1,8]naphthylidin-4-one-3-carboxamide acetate] | 6.68
21 | Cc1cnccc1NC(=O)c1cn([C@H]2CC[C@H](O)CC2)c2ncccc2c1=O [Example 174, N-(3-methylpyridin-4-yl)-1-(trans-4-hydroxycyclohexyl)-1,4-dihydro[1,8]naphthylidin-4-one-3-carboxamide] | 6.89
22 | CCN(CC)Cc1ccc(C(=O)O[C@H]2CC[C@H](n3cc(C(=O)Nc4c(Cl)cncc4Cl)c(=O)c4cccnc43)CC2)cc1 [Example 159, trans-4-[3-{[(3,5-dichloro-4-pyridinyl)amino]carbonyl}-4-oxo[1,8]naphthylidin-1(4H)-yl]cyclohexyl 4-(diethylaminomethyl)benzoate hydrochloride] | 8.40
23 | O=C(Nc1c(Cl)cncc1Cl)c1cn(C2CCCC2)c2ncccc2c1=O [Example 150, N-(3,5-dichloropyridin-4-yl)-1-cyclopentyl-1,4-dihydro[1,8]naphthylidin-4-one-3-carboxamide] | 9.52
24 | CC(C)(C)C(=O)O[C@H]1CC[C@H](n2cc(C(=O)Nc3c(Cl)cncc3Cl)c(=O)c3cccnc32)CC1 [Example 128, trans-4-[3-{[(3,5-dichloro-4-pyridinyl)amino]carbonyl}-4-oxo[1,8]naphthylidin-1(4H)-yl]cyclohexylpivalate] | 8.24
25 | O=C(NC1CC1)c1cn([C@H]2CC[C@H](O)CC2)c2ncccc2c1=O [Example 170, N-cyclopropyl-1-(trans-4-hydroxycyclohexyl)-1,4-dihydro[1,8]naphthylidin-4-one-3-carboxamide] | 6.00
